In patent US11638745B2, “Method to improve neurologic outcomes in temperature managed patients” (University of Pittsburgh—Of the Commonwealth System of …, priority 2015, dated 2023):
Entries after “also recorded” stand apart in the source; their conditions may differ.

Columns and labels:
[1] = system: RBM3; assay: RBM3 protein levels by Western blot in drug-treated primary cortical neurons at 37° C. or 36° C.; type: cell-based, rat; conditions: for RBM3 levels: 24 h treatment; for RBM3 protein expression: DIV7 neurons cultured at 37° C., 24 h treatment with increasing dose
Protocol: Primary Cortical Neuron Culture. Embryos (mixed gender) were isolated from timed pregnant (E16-17) Sprague Dawley rats. Neuron cultures were performed as previously described (Jackson TC, et al. (2013) Pharmacological inhibition of pleckstrin homology domain leucine-rich repeat protein phosphatase is neuroprotective: differential effects on astrocytes. J Pharmacol Exp Ther 347:516-528). Cortices were dissected in ice-cold Hanks balanced salt solution (HBSS; Life Technologies, Grand Island, N.Y., USA) containing sodium bicarbonate (SIGMA), penicillin-streptomycin (Life Technologies), and 4-(2-hydroxyethyl)-1-piperazineethanesulfonic acid (HEPES; Life Technologies). Brain tissues were dissected under a Leica M651 light microscope (Buffalo Grove, Ill., USA), and placed in a 1.5 mL tube containing ˜1 mL prepared HBSS. Tissues were minced and transferred to a 15 mL conical tube. Cells were spun 5 min/200 g/4° C. Supernatant was aspirated, cells resuspended in 2 mL trypsin solution, and incubated 8 min at 37° C. with gentle mixing. Trypsin activity was quenched in 10 mL Neurobasal/B27 (Life Technologies) containing 10% fetal bovine serum (FBS; Thermo Fisher Scientific, Pittsburgh, Pa., USA). Cells were transferred into a new 15 mL conical tube and spun 5 min/200 g/4° C. Supernatant was replaced with 1.5 mL trituration media. Cells were dissociated by 10 passages through a fire-polished glass Pasteur pipette. The cell pellet was resuspended in plating media warmed to 37° C. (Neurobasal Media/B27 supplement prepared+25 μM L-Glutamic Acid+Pen-Strep). Cell number was quantified by automatic counting on a Cellometer (Nexcelom Bioscience, Lawrence, Mass., USA). Cells were seeded onto 6-well culture plates coated with poly-D-lysine (density ˜1.2-1.5×10^6/well). Cultures were maintained by half media replacement every ˜3-4 days in vitro (DIV). The mitotic inhibitor cytosine β-D-arabinofuranoside hydrochloride (ARA-C; 4 μM final concentration) was added in study 1 experiment (e.g. DIV10-11 cultures) to ensure purity of neuronal biochemistry for initial assessment of temperature treatments. Mitotic inhibitors at low levels are non-toxic but still potentially represent a mild stressor (though necessary to guarantee neuron purity) (Ahlemeyer B, et al., (2003) Cytosine arabinofuranoside-induced activation of astrocytes increases the susceptibility of neurons to glutamate due to the release of soluble factors. Neurochem Int 42:567-581). Results of temperature treatments were confirmed in younger DIV6 neurons in the absence of ARA-C (neuron enriched cultures; >90% neurons). Astrocytes were allowed to proliferate in aged cultures, which were not treated with ARA-C. It was observed that astrocytes are necessary for long-term survival of neuron cultures (i.e. DIV26 mature neuron cultures).
Hypothermia Protocols: Neurons were maintained in a 37° C. (normothermic) incubator. Before start of hypothermia, two identical incubators of the same make/model with humidity of ˜95% (all in the same room) were programmed to 36° C. and 33° C. Incubators were allowed a minimum of 48 h equilibration time prior to starting hypothermic experiments. In some experiments, as an additional control, a thermometer was placed inside hypothermic incubators as a secondary gauge of temperature. Temperature as assessed by that approach was independently confirmed to never be under target temperature and fluctuate by no more than ˜0.5° C. On DIV of interest, culture plates were assigned to one of the three experimental temperatures for 24 or 48 h.
Drug Treatments: Drugs were prepared in DMSO or PBS (i.e. for FGF21). All drugs were diluted in conditioned culture media and applied for 24 h. Controls received equal amounts of DMSO/PBS without drugs. Primary neurons were harvested for biochemistry at key time points. RBM3 and CIRBP levels were measured by Western blot. Investigators were not blinded to temperature treatment groups.
Western Blot. […]

[2] = system: RBM3; assay: as above; type: cell-based, rat; conditions: mature DIV26 neurons, 48 h at 36° C., drug combinations; melatonin 100 μM, T090 1 μM
[3] = system: piglet model of perinatal ischemic brain injury; conditions: hypothermia 33.5° C.; cited from earlier work
[4] = mammals; cited from earlier work
[5] = used to chemically lower core body temperature; cited from earlier work
[6] = system: RBM3 mRNA; conditions: mouse liver, microarray; cited from earlier work
[7] = system: PND17 rats given CCI; assay: PND17 CCI with TH/TTM ± FGF21 (MWM behavior, cell death histology); type: in vivo, rat; conditions: 1 mg/kg FGF21 IV at start and end of TH/TTM
Protocol: TTM and TH. PND17 and 12 wk adult Sprague Dawley rats receive external cooling. Endogenous RBM3/β-Klotho levels is compared in male and female rats. The TTM group is cooled to 36° C. within ˜5 min then maintained to target temperature for 7 h: 25 min. The TH group is cooled to 33° C. over ˜1 h then to target temperature for 3 h: 15 min then rewarmed at a rate of 1° C./hr. Time spent<37° C. is equal in all groups (8 h: 30 mins). FIGS. 11A, 11B, 12A, and 12B illustrate exemplary protocols for these groups.
PND17 CCI. Rats are given CCI in Aim 271, 72. Isoflurane anesthetized ˜35 g PND17 rats are craniotomized at the left parietal cortex and injured by pneumatic impactor (velocity, 4 m/s; depth, 2.5 mm). Randomization is by (A) temperature (37° C., 36° C., 33° C.), and (B)±CCI±1 mg/kg FGF21 or PBS vehicle. Two bolus IV injections of drug will be given—at the start and end of TH/TTM. Technicians are blind to treatments.
MWM Behavior. Rats are given MWM testing 73, 74. […] Motor skill is assessed measuring swim speed proving cognitive performance is not confounded by motor deficits.
Cell Death. […] Surviving CA1/CA3 cells are counted in H & E stained brain sections 7 d post-injury by unbiased stereology. 21 d contusion volume is measured after MWM in separate rats […]

[8] = system: AKT/ERK; assay: AKT/ERK phosphorylation by Western blot in FGF21-treated neurons; type: cell-based, rat; conditions: neurons at 37° C., 24 h later
Protocol: Primary Cortical Neuron Culture. Embryos (mixed gender) were isolated from timed pregnant (E16-17) Sprague Dawley rats. Neuron cultures were performed as previously described (Jackson TC, et al. (2013) Pharmacological inhibition of pleckstrin homology domain leucine-rich repeat protein phosphatase is neuroprotective: differential effects on astrocytes. J Pharmacol Exp Ther 347:516-528). Cortices were dissected in ice-cold Hanks balanced salt solution (HBSS; Life Technologies, Grand Island, N.Y., USA) containing sodium bicarbonate (SIGMA), penicillin-streptomycin (Life Technologies), and 4-(2-hydroxyethyl)-1-piperazineethanesulfonic acid (HEPES; Life Technologies). Brain tissues were dissected under a Leica M651 light microscope (Buffalo Grove, Ill., USA), and placed in a 1.5 mL tube containing ˜1 mL prepared HBSS. Tissues were minced and transferred to a 15 mL conical tube. Cells were spun 5 min/200 g/4° C. Supernatant was aspirated, cells resuspended in 2 mL trypsin solution, and incubated 8 min at 37° C. with gentle mixing. […] Cell number was quantified by automatic counting on a Cellometer (Nexcelom Bioscience, Lawrence, Mass., USA). […]
Drug Treatments: Drugs were prepared in DMSO or PBS (i.e. for FGF21). […] RBM3 and CIRBP levels were measured by Western blot. […]
Western Blot. […] Protein concentration was determined using the BCA assay (Thermo Scientific-PIERCE). […]

[9] = young DIV6 neurons at 37° C., same concentrations
[10] = young DIV6 neurons cooled to 36° C., 5 nM FGF21, 100 μM melatonin, 1 μM T090, 5 μM SRT1720, 1 μM AZD1080

Molecule | RBM3 levels [1, 9] | RBM3 levels [1, 10] | RBM3 induction [2] | RBM3 protein expression [1] | body temperature [4] | other results
O=C(Nc1ccccc1-c1cn2c(CN3CCNCC3)csc2n1)c1cnc2ccccc2n1 [SRT1720] | Neither SRT1720 (Sirtuin antagonist) nor AZD1080 (GSK-3β antagonist) increased RBM3 levels; also recorded: did not affect RBM3 levels | Neither SRT1720 (Sirtuin antagonist) nor AZD1080 (GSK-3β antagonist) increased RBM3 levels; also recorded: did not affect RBM3 levels |  |  |  | 
COc1ccc2[nH]cc(CCNC(C)=O)c2c1 [melatonin] | failed to do so | augmented RBM3 upregulation; also recorded: augmented RBM3 levels; also recorded: increased hypothermia-induced RBM3 | failed to do so | minor effects on RBM3 protein expression |  | RBM3 levels ([1]; young DIV6 neurons cooled to 36° C., 5 nM FGF21, 100 μM melatonin, 1 μM T090, 5 μM SRT1720, 1 μM AZD1080, listed as Melatonin): augment RBM3 induction; hypothermia induced neuroprotection [3]: augments hypothermia (33.5° C.) induced neuroprotection
Nc1ncnc2c1ncn2[C@@H]1O[C@H](COP(=O)(O)O)[C@@H](O)[C@H]1O [5-AMP, adenosine monophosphate] |  |  |  |  | chemically induce hypothermia | side effects [5]: profound hypotension and hyperglycemia
N#Cc1ccc2[nH]c(O)c(-c3ccc(CN4CCOCC4)cn3)c2c1 [AZD1080] | Neither SRT1720 (Sirtuin antagonist) nor AZD1080 (GSK-3β antagonist) increased RBM3 levels; also recorded: did not affect RBM3 levels | Neither SRT1720 (Sirtuin antagonist) nor AZD1080 (GSK-3β antagonist) increased RBM3 levels; also recorded: did not affect RBM3 levels |  |  |  | 
O=S(=O)(c1ccccc1)N(CC(F)(F)F)c1ccc(C(O)(C(F)(F)F)C(F)(F)F)cc1 [T090] | mildly increased RBM3 levels | mildly increased RBM3 levels | failed to do so | minor effects on RBM3 protein expression |  | RBM3 levels ([1]; young DIV6 neurons at 37° C., same concentrations, listed as T0901317): mildly induced RBM3; RBM3 levels ([1]; young DIV6 neurons cooled to 36° C., 5 nM FGF21, 100 μM melatonin, 1 μM T090, 5 μM SRT1720, 1 μM AZD1080, listed as T0901317): augmented RBM3 upregulation; also recorded: mildly induced RBM3; RBM3 mRNA [6]: upregulate RBM3 mRNA
FGF21: Fibroblast growth factor 21 protein, purchased from R&D Systems (protein, UniProt Q9NSA1 29-209, looked up) Fibroblast growth factor 21: HPIPDSSPLLQFGGQVRQRYLYTDDAQQTEAHLEIREDGTVGGAADQSPESLLQLKALKPGVIQILGVKTSRFLCQRPDGALYGSLHFDPEACSFRELLLEDGYNVYQSEAHGLPLHLPGNKSPHRDPAPRGPARFLPLPGLPPALPEPPGILAPQPPDVGSSDPLSMVGPSQGRSPSYAS | failed to do so | augment RBM3 induction; also recorded: induces RBM3; also recorded: augments RBM3; also recorded: augmented RBM3 upregulation; also recorded: augmented RBM3 levels; also recorded: increased hypothermia-induced RBM3 | failed to do so | minor effects on RBM3 protein expression | slight body temperature reduction | TH/TTM induced neuroprotection after a CCI [7]: augments TH/TTM induced neuroprotection; RBM3 levels above baseline ([1]; DIV7 neurons cultured at 36° C., 24 h, dose effect): increased RBM3 above baseline in a bi-phasic manner; AKT/ERK phosphorylation [8]: decreased
